IC50 data for 26 molecules are collected here from patent publication US9221838B2, “Inhibitors of AKT activity” (ALMAC DISCOVERY LIMITED, priority 2009, dated 2015).

pIC50: −log10 of the molar value.

Holding throughout (format): biochemical
One assay deals with T1, AKT1 (Homo sapiens, UniProt P31749).
T1 construct: purchased SignalChem
Put plainly: AKT Kinase Assay (IMAP fluorescent polarisation) vs AKT1. Put shortly: (§1)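 Phosphorylation of FAM-Crosstide detected by IMAP binding and fluorescence polarisation (485/528 nm), with IC50 fitted from % inhibition versus vehicle. Compound was incubated 45 min with enzyme, then reacted 1 h at room temperature with ATP and peptide in Tris/MgCl2/DTT buffer. Dose response had fourteen half-log points.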

The next assay deals with T2, AKT2 (Homo sapiens, UniProt P31751).
T2 construct: purchased SignalChem
T2 sequence (P31751 whole entry): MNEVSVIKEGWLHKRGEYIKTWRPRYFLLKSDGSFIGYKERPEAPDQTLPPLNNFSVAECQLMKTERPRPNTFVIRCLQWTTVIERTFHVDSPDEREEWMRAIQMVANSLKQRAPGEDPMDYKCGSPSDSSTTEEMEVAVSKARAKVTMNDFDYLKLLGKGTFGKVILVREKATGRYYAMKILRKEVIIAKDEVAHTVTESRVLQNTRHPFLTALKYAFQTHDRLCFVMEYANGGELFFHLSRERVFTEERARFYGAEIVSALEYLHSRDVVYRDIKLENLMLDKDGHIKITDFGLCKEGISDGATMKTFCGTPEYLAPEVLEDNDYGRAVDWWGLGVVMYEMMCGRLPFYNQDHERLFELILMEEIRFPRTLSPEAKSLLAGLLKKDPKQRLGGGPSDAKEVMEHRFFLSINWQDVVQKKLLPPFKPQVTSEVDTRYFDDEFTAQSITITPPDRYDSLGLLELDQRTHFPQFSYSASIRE
The assay is described as follows: AKT Kinase Assay (IMAP fluorescent polarisation) vs AKT2. The gist of the method: as §1

In another assay the target is T3, AKT3 (Homo sapiens, UniProt Q9Y243).
T3 construct: purchased SignalChem
T3 sequence (Q9Y243 whole entry): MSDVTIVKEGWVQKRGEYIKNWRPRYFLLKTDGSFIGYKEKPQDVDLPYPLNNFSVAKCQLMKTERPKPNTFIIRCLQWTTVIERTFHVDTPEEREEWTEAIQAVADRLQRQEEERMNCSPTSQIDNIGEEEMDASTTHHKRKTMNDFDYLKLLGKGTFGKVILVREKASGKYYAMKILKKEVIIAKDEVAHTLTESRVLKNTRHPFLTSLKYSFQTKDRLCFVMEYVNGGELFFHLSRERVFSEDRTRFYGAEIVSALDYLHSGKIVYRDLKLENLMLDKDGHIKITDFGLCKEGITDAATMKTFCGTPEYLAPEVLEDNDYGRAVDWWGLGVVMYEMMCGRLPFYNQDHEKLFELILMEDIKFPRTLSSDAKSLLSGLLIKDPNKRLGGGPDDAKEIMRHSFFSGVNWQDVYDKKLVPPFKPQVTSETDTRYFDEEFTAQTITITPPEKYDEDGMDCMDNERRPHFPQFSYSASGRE
Put plainly: AKT Kinase Assay (IMAP fluorescent polarisation) vs AKT3. The gist of the method: as §1

T1 sequence (P31749 whole entry): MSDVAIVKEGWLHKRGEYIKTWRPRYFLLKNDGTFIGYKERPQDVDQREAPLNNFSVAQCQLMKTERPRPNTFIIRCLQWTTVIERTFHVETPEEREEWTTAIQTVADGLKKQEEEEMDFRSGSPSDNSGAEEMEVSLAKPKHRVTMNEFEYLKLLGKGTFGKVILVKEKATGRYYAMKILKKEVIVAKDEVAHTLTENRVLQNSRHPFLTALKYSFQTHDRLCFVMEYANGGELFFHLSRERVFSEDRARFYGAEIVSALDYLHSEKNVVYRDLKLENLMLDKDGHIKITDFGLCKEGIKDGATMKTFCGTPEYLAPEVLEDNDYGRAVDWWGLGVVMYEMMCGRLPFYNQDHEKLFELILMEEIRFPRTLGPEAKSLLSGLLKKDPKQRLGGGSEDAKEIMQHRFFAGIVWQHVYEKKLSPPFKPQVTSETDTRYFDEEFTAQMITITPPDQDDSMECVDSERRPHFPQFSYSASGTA

`CCc1nnc2n1-c1cc(-c3ccccc3)c(-c3ccc([C@]4(N)C[C@@H](O)C4)cc3)nc1OC2` [Example 136, (1s,3s)-3-Amino-3-(4-(1-ethyl-8-phenyl-4H-pyrido[2,3-b][1,2,4]triazolo[4,3-d][1,4]oxazin-7-yl)phenyl)cyclobutanol]: the pIC50 at AKT1 was 6.00 to 7.00; at AKT2 it was 5.00 to 6.00; on AKT3, 5.00 to 6.00.

Take `CN1CCc2nc(-c3ccc(C4(N)CCC4)cc3)c(-c3ccccc3)cc2C1=O` [Example 23, 2-(4-(1-aminocyclobutyl)phenyl)-6-methyl-3-phenyl-7,8-dihydro-1,6-naphthyridin-5(6H)-one]: the pIC50 was 6.00 to 7.00 at AKT1, 5.00 to 6.00 on AKT2 and less than 5.00 on AKT3.

With `NC1(c2ccc(-c3nc4c(cc3-c3ccccc3)-n3c(nnc3C(F)F)CO4)cc2)CCC1` [Example 98, 1-(4-(1-(difluoromethyl)-8-phenyl-4H-pyrido[2,3-b][1,2,4]triazolo[4,3-d][1,4]oxazin-7-yl)phenyl)cyclobutanamine], the pIC50 at AKT1 was not below 7.00; at AKT2, 6.00 to 7.00; at AKT3 it was 6.00 to 7.00.

With `C[C@]1(O)C[C@@](N)(c2ccc(-c3nc4c(cc3-c3ccccc3)N(CC(F)(F)F)C(=O)CO4)cc2)C1` [Example 152, 6-(4-((1r,3r)-1-amino-3-hydroxy-3-methylcyclobutyl)phenyl)-7-phenyl-1-(2,2,2-trifluoroethyl)-1H-pyrido[2,3-b][1,4]oxazin-2(3H)-one], the results for the negative logarithm of the IC50 (pIC50) on AKT1, at AKT2 and at AKT3 were 6.00 to 7.00, not below 7.00 and 5.00 to 6.00, respectively.

On to `CCc1nnc2n1-c1cc(-c3ccccc3)c(-c3ccc([C@]4(N)C[C@](C)(O)C4)cc3)nc1OC2` [Example 138, (1r,3r)-3-amino-3-(4-(1-ethyl-8-phenyl-4H-pyrido[2,3-b][1,2,4]triazolo[4,3-d][1,4]oxazin-7-yl)phenyl)-1-methylcyclobutanol], for which the pIC50 on AKT1 is not below 7.00; on AKT2 it was 6.00 to 7.00; at AKT3 it was 5.00 to 6.00.

For `NC1(c2ccc(-c3nc4c(cc3-c3ccccc3)N(CC3CC3)C(=O)CO4)cc2)CCC1` [Example 55, 6-(4-(1-aminocyclobutyl)phenyl)-1-(cyclopropylmethyl)-7-phenyl-1H-pyrido[2,3-b][1,4]oxazin-2(3H)-one], the results for the pIC50 at AKT1, at AKT2 and at AKT3 were 6.00 to 7.00, not below 7.00 and 6.00 to 7.00, respectively.

Regarding `NC1(c2ccc(-c3nc4c(cc3-c3ccccc3)-n3c(CF)nnc3CO4)cc2)CCC1` [Example 120, 1-(4-(1-(fluoromethyl)-8-phenyl-4H-pyrido[2,3-b][1,2,4]triazolo[4,3-d][1,4]oxazin-7-yl)phenyl)cyclobutanamine], the pIC50 is not below 7.00 at AKT1, 6.00 to 7.00 on AKT2 and 6.00 to 7.00 at AKT3.

For `NC1(c2ccc(-c3nc4c(cc3-c3ccccc3)NCCO4)cc2)CCC1` [Example 37, 1-(4-(7-phenyl-2,3-dihydro-1H-pyrido[2,3-b][1,4]oxazin-6-yl)phenyl)cyclobutanamine], the pIC50 at AKT1 was 6.00 to 7.00; on AKT2, 5.00 to 6.00; at AKT3, less than 5.00.

As for `C[C@]1(O)C[C@@](N)(c2ccc(-c3nc4c(cc3-c3ccccc3)N(CC3CC3)C(=O)CO4)cc2)C1` [Example 144, 6-(4-((1r,3r)-1-amino-3-hydroxy-3-methylcyclobutyl)phenyl)-1-(cyclopropylmethyl)-7-phenyl-1H-pyrido[2,3-b][1,4]oxazin-2(3H)-one], the negative-log IC50 (pIC50) at AKT1 was 6.00 to 7.00; at AKT2 it was not below 7.00; at AKT3, 6.00 to 7.00.

Turning to `NC1(c2ccc(-c3nc4c(cc3-c3ccccc3)-c3n[nH]c(N5CCOCC5)c3CC4)cc2)CCC1` [Example 13, 1-(4-(3-morpholino-8-phenyl-4,5-dihydro-2H-pyrazolo[3,4-f]quinolin-7-yl)phenyl)cyclobutanamine], the negative logarithm of the IC50 (pIC50) is 6.00 to 7.00 at AKT1, 6.00 to 7.00 at AKT2 and 5.00 to 6.00 at AKT3.

Consider `Cn1ncc2c1-c1cc(-c3ccccc3)c(-c3ccc(C4(N)CCC4)cc3)nc1CC2` [Example 6, 1-(4-(1-methyl-8-phenyl-4,5-dihydro-1H-pyrazolo[3,4-f]quinolin-7-yl)phenyl)cyclobutanamine], for which the pIC50 at AKT1 is 6.00 to 7.00; at AKT2, 5.00 to 6.00; on AKT3, 5.00 to 6.00.

For `CC1(C)CC(=O)c2cc(-c3ccccc3)c(-c3ccc(C4(N)CCC4)cc3)nc2C1` [Example 18, 2-(4-(1-aminocyclobutyl)phenyl)-7,7-dimethyl-3-phenyl-7,8-dihydroquinolin-5(6H)-one], the results for the pIC50 at AKT1, on AKT2 and on AKT3 were 5.00 to 6.00, 5.00 to 6.00 and less than 5.00, respectively.

Consider `CN1C(=O)COc2nc(-c3ccc([C@]4(N)C[C@](C)(O)C4)cc3)c(-c3ccccc3)cc21` [Example 113, 6-(4-((1r,3r)-1-amino-3-hydroxy-3-methylcyclobutyl)phenyl)-1-methyl-7-phenyl-1H-pyrido[2,3-b][1,4]oxazin-2(3H)-one], for which the pIC50 at AKT1 is not below 7.00; at AKT2 it was 6.00 to 7.00; on AKT3, 5.00 to 6.00.

`CNc1[nH]nc2c1CCc1nc(-c3ccc(C4(N)CCC4)cc3)c(-c3ccccc3)cc1-2` [Example 11, 7-(4-(1-aminocyclobutyl)phenyl)-N-methyl-8-phenyl-4,5-dihydro-2H-pyrazolo[3,4-f]quinolin-3-amine]: the negative logarithm of the IC50 (pIC50) was 6.00 to 7.00 at AKT1, 6.00 to 7.00 at AKT2 and less than 5.00 at AKT3.

On to `Cc1nc2c([nH]1)CCc1nc(-c3ccc(C4(N)CCC4)cc3)c(-c3ccccc3)cc1-2` [Example 15, 1-(4-(2-methyl-8-phenyl-4,5-dihydro-3H-imidazo[4,5-f]quinolin-7-yl)phenyl)cyclobutanamine], for which the negative-log IC50 (pIC50) on AKT1 was 6.00 to 7.00; at AKT2, 5.00 to 6.00; on AKT3, 5.00 to 6.00.

Turning to `CN1C(=O)COc2nc(-c3ccc(C4(N)CC4)cc3)c(-c3ccccc3)cc21` [Example 149, 6-(4-(1-aminocyclopropyl)phenyl)-1-methyl-7-phenyl-1H-pyrido[2,3-b][1,4]oxazin-2(3H)-one], the pIC50 on AKT1 was 6.00 to 7.00; on AKT2, 5.00 to 6.00; at AKT3 it was less than 5.00.

Regarding `NC1(c2ccc(-c3nc4c(cc3-c3ccccc3)-n3c(nnc3C(F)(F)F)CO4)cc2)CCC1` [Example 100, 1-(4-(8-phenyl-1-(trifluoromethyl)-4H-pyrido[2,3-b][1,2,4]triazolo[4,3-d][1,4]oxazin-7-yl)phenyl)cyclobutanamine], the negative logarithm of the IC50 (pIC50) is 6.00 to 7.00 at AKT1, 5.00 to 6.00 at AKT2 and 5.00 to 6.00 at AKT3.

On to `CN(C)CCN1CCc2nc(-c3ccc(C4(N)CCC4)cc3)c(-c3ccccc3)cc2C1=O` [Example 25], for which the pIC50 is 6.00 to 7.00 on AKT1, 5.00 to 6.00 at AKT2 and less than 5.00 at AKT3.

As to `CN1C(=O)COc2nc(-c3ccc(CN)cc3)c(-c3ccccc3)cc21` [Example 131, 6-(4-(aminomethyl)phenyl)-1-methyl-7-phenyl-1H-pyrido[2,3-b][1,4]oxazin-2(3H)-one], the negative-log IC50 (pIC50) on AKT1 is 5.00 to 6.00; at AKT2, 6.00 to 7.00; on AKT3 it was 5.00 to 6.00.

For the molecule `CC1Oc2nc(-c3ccc(C4(N)CCC4)cc3)c(-c3ccccc3)cc2N(C)C1=O` (stereo not drawn) [Example 84, 6-(4-(1-aminocyclobutyl)phenyl)-1,3-dimethyl-7-phenyl-1H-pyrido[2,3-b][1,4]oxazin-2(3H)-one], the pIC50 at AKT1 was 6.00 to 7.00; on AKT2, 5.00 to 6.00; on AKT3, 5.00 to 6.00.

`CN1C(=O)COc2nc(-c3ccc([C@]4(N)C[C@H](O)C4)cc3)c(-c3ccccc3)cc21` [Example 137, 6-(4-((1r,3r)-1-amino-3-hydroxycyclobutyl)phenyl)-1-methyl-7-phenyl-1H-pyrido[2,3-b][1,4]oxazin-2(3H)-one]: the negative logarithm of the IC50 (pIC50) on AKT1 is not below 7.00; at AKT2, 6.00 to 7.00; on AKT3, 5.00 to 6.00.

For `NC1(c2ccc(-c3nc4c(cc3-c3ccccc3)N(Cc3ccncc3)C(=O)CO4)cc2)CCC1` [Example 45, 6-(4-(1-aminocyclobutyl)phenyl)-7-phenyl-1-(pyridin-4-ylmethyl)-1H-pyrido[2,3-b][1,4]oxazin-2(3H)-one], the negative-log IC50 (pIC50) on AKT1 is 5.00 to 6.00; at AKT2 it was 6.00 to 7.00; at AKT3, 5.00 to 6.00.

As for `NC(=O)c1nnc2n1-c1cc(-c3ccccc3)c(-c3ccc(C4(N)CCC4)cc3)nc1OC2` [Example 119, 7-(4-(1-aminocyclobutyl)phenyl)-8-phenyl-4H-pyrido[2,3-b][1,2,4]triazolo[4,3-d][1,4]oxazine-1-carboxamide], the negative-log IC50 (pIC50) was 6.00 to 7.00 at AKT1, 6.00 to 7.00 at AKT2 and 5.00 to 6.00 on AKT3.

As to `Cn1cnc(-c2nnc3n2CCc2nc(-c4ccc(C5(N)CCC5)cc4)c(-c4ccccc4)cc2-3)c1` [Example 29, 1-(4-(3-(1-methyl-1H-imidazol-4-yl)-9-phenyl-5,6-dihydro-[1,2,4]triazolo[3,4-f][1,6]naphthyridin-8-yl)phenyl)cyclobutanamine], the negative logarithm of the IC50 (pIC50) is not below 7.00 on AKT1, 6.00 to 7.00 at AKT2 and less than 5.00 at AKT3.

As to `CN1C(=O)COc2nc(-c3ccc(C4(N)CCC4)cc3)c(-c3ccc(F)cc3)cc21` [Example 132, 6-(4-(1-aminocyclobutyl)phenyl)-7-(4-fluorophenyl)-1-methyl-1H-pyrido[2,3-b][1,4]oxazin-2(3H)-one], the pIC50 at AKT1 was 6.00 to 7.00; at AKT2, 5.00 to 6.00; at AKT3, less than 5.00.

`NC1(c2ccc(-c3nc4c(cc3-c3ccccc3)-c3n[nH]c(NCCO)c3CC4)cc2)CCC1` [Example 12, 2-((7-(4-(1-aminocyclobutyl)phenyl)-8-phenyl-4,5-dihydro-2H-pyrazolo[3,4-f]quinolin-3-yl)amino)ethanol]: the negative-log IC50 (pIC50) at AKT1 was not below 7.00; on AKT2, 5.00 to 6.00; on AKT3, less than 5.00.
